Measurements from PubChem BioAssay AID2060626 (Molecular Pharmacology Branch, DTP, NCI, 2025).
Blank lines part the entries; values can stand above or below the compound they belong to.

Tested on: 168753-222-R-J1-PDC complex spheroid viability
Experiment: Anticancer human tumor 168753-222-R-J1-PDC patient-derived bladder carcinoma cell line growth inhibition [CLK]
Conditions: for IC50: curve of first compound; for viability, T/C: stronger effect = lower value
Procedure, shortened: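 Multi-cell-type spheroids combined patient-derived tumor cells with HUVEC endothelial cells and human mesenchymal stem cells. Paired agents were dosed in half-log steps down from about clinical Cmax, or from 10 microM where Cmax was unknown.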

[1] = second compound 0.0316 µM, first compound 0.0316 µM
[2] = second compound 0.0316 µM, first compound 0.1 µM
[3] = second compound 0.0316 µM, first compound 0.316 µM
[4] = second compound 0.0316 µM, first compound 1 µM
[5] = second compound 0.0316 µM, first compound 3.16 µM
[6] = second compound 0.0316 µM, first compound 10 µM
[7] = second compound 0.1 µM, first compound 0.0316 µM
[8] = second compound 0.1 µM, first compound 0.1 µM
[9] = second compound 0.1 µM, first compound 0.316 µM
[10] = second compound 0.1 µM, first compound 1 µM
[11] = second compound 0.1 µM, first compound 3.16 µM
[12] = second compound 0.1 µM, first compound 10 µM
[13] = second compound 0.316 µM, first compound 0.0316 µM
[14] = second compound 0.316 µM, first compound 0.1 µM
[15] = second compound 0.316 µM, first compound 0.316 µM
[16] = second compound 0.316 µM, first compound 1 µM
[17] = second compound 0.316 µM, first compound 3.16 µM
[18] = second compound 0.316 µM, first compound 10 µM
[19] = second compound 1 µM, first compound 0.0316 µM
[20] = second compound 1 µM, first compound 0.1 µM
[21] = second compound 1 µM, first compound 0.316 µM
[22] = second compound 1 µM, first compound 1 µM
[23] = second compound 1 µM, first compound 3.16 µM
[24] = second compound 1 µM, first compound 10 µM
[25] = second compound 3.16 µM, first compound 0.0316 µM
[26] = second compound 3.16 µM, first compound 0.1 µM
[27] = second compound 3.16 µM, first compound 0.316 µM
[28] = second compound 3.16 µM, first compound 1 µM
[29] = second compound 3.16 µM, first compound 3.16 µM
[30] = second compound 3.16 µM, first compound 10 µM
[31] = second compound 10 µM, first compound 0.0316 µM
[32] = second compound 10 µM, first compound 0.1 µM
[33] = second compound 10 µM, first compound 0.316 µM
[34] = second compound 10 µM, first compound 1 µM
[35] = second compound 10 µM, first compound 3.16 µM
[36] = second compound 10 µM, first compound 10 µM
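Further: viability measured after seven days of drug exposure.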
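Wherever viability, T/C is given: luminescence signal used as surrogate for viable cell amount; 100% = DMSO vehicle control wells.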

- IC50 (second compound 0.0316 µM): > 10 µM
- IC50 (second compound 0.1 µM): > 10 µM
- IC50 (second compound 0.316 µM): > 10 µM
- IC50 (second compound 1 µM): < 0.0316 µM
- IC50 (second compound 3.16 µM): < 0.0316 µM
- IC50 (second compound 10 µM): < 0.0316 µM
Structure (SMILES): C=CC(=O)N1CCN(c2nc(=O)n(-c3c(C)ccnc3C(C)C)c3nc(-c4c(O)cccc4F)c(F)cc23)C(C)C1 (stereo unspecified) + CNC(=O)c1ccc(Nc2nc(OC3CCCC3)c3c(-c4ccc5nc(C)oc5c4)c[nH]c3n2)c(OC)c1
- viability, T/C [1]: 107%
- viability, T/C [2]: 96.7%
- viability, T/C [3]: 111%
- viability, T/C [4]: 128%
- viability, T/C [5]: 117%
- viability, T/C [6]: 113%
- viability, T/C [7]: 104%
- viability, T/C [8]: 98.5%
- viability, T/C [9]: 97.5%
- viability, T/C [10]: 107%
- viability, T/C [11]: 102%
- viability, T/C [12]: 95.2%
- viability, T/C [13]: 85.7%
- viability, T/C [14]: 83.5%
- viability, T/C [15]: 74.8%
- viability, T/C [16]: 78.3%
- viability, T/C [17]: 94.1%
- viability, T/C [18]: 82.2%
- viability, T/C [19]: 51.7%
- viability, T/C [20]: 35.4%
- viability, T/C [21]: 45.4%
- viability, T/C [22]: 47.8%
- viability, T/C [23]: 41.4%
- viability, T/C [24]: 30.9%
- viability, T/C [25]: 23.3%
- viability, T/C [26]: 25.6%
- viability, T/C [27]: 26.6%
- viability, T/C [28]: 26.3%
- viability, T/C [29]: 30.4%
- viability, T/C [30]: 19.4%
- viability, T/C [31]: 18.8%
- viability, T/C [32]: 23.5%
- viability, T/C [33]: 20.9%
- viability, T/C [34]: 24.5%
- viability, T/C [35]: 19.4%
- viability, T/C [36]: 16.4%

- IC50 (second compound 0.0316 µM): > 10 µM
- IC50 (second compound 0.1 µM): > 10 µM
- IC50 (second compound 0.316 µM): 9.85 µM
- IC50 (second compound 1 µM): 3.86 µM
- IC50 (second compound 3.16 µM): < 0.0316 µM
- IC50 (second compound 10 µM): < 0.0316 µM
Structure (SMILES): CCCS(=O)(=O)Nc1ccc(F)c(C(=O)c2c[nH]c3ncc(-c4ccc(Cl)cc4)cc23)c1F + CNC(=O)c1ccc(Nc2nc(OC3CCCC3)c3c(-c4ccc5nc(C)oc5c4)c[nH]c3n2)c(OC)c1
- viability, T/C [1]: 109%
- viability, T/C [2]: 105%
- viability, T/C [3]: 113%
- viability, T/C [4]: 116%
- viability, T/C [5]: 105%
- viability, T/C [6]: 68.1%
- viability, T/C [7]: 91.6%
- viability, T/C [8]: 103%
- viability, T/C [9]: 105%
- viability, T/C [10]: 106%
- viability, T/C [11]: 103%
- viability, T/C [12]: 66.2%
- viability, T/C [13]: 92.3%
- viability, T/C [14]: 98.7%
- viability, T/C [15]: 93.1%
- viability, T/C [16]: 104%
- viability, T/C [17]: 101%
- viability, T/C [18]: 49.3%
- viability, T/C [19]: 53.7%
- viability, T/C [20]: 50.7%
- viability, T/C [21]: 46.9%
- viability, T/C [22]: 57.2%
- viability, T/C [23]: 64%
- viability, T/C [24]: 28.6%
- viability, T/C [25]: 25.1%
- viability, T/C [26]: 33.7%
- viability, T/C [27]: 34.4%
- viability, T/C [28]: 30.1%
- viability, T/C [29]: 29.6%
- viability, T/C [30]: 26.1%
- viability, T/C [31]: 20%
- viability, T/C [32]: 31.2%
- viability, T/C [33]: 29.7%
- viability, T/C [34]: 20.1%
- viability, T/C [35]: 27.8%
- viability, T/C [36]: 24%

- IC50 (second compound 0.0316 µM): 2.27 µM
- IC50 (second compound 0.1 µM): 2.16 µM
- IC50 (second compound 0.316 µM): 0.203 µM
- IC50 (second compound 1 µM): < 0.0316 µM
- IC50 (second compound 3.16 µM): < 0.0316 µM
- IC50 (second compound 10 µM): < 0.0316 µM
Structure (SMILES): COC1C=CCC(C)C(C)S(=O)(=O)NC(=O)c2ccc3c(c2)N(CC2CCC21)CC1(CCCc2cc(Cl)ccc21)CO3 (stereo unspecified) + CNC(=O)c1ccc(Nc2nc(OC3CCCC3)c3c(-c4ccc5nc(C)oc5c4)c[nH]c3n2)c(OC)c1
- viability, T/C [1]: 105%
- viability, T/C [2]: 118%
- viability, T/C [3]: 101%
- viability, T/C [4]: 87.6%
- viability, T/C [5]: 34.6%
- viability, T/C [6]: 13.6%
- viability, T/C [7]: 102%
- viability, T/C [8]: 106%
- viability, T/C [9]: 101%
- viability, T/C [10]: 78.5%
- viability, T/C [11]: 35.9%
- viability, T/C [12]: 18.9%
- viability, T/C [13]: 75.9%
- viability, T/C [14]: 74%
- viability, T/C [15]: 35%
- viability, T/C [16]: 29.7%
- viability, T/C [17]: 30%
- viability, T/C [18]: 11.9%
- viability, T/C [19]: 33%
- viability, T/C [20]: 22.6%
- viability, T/C [21]: 15.8%
- viability, T/C [22]: 13.6%
- viability, T/C [23]: 14.9%
- viability, T/C [24]: 9.33%
- viability, T/C [25]: 20.9%
- viability, T/C [26]: 15.9%
- viability, T/C [27]: 16.9%
- viability, T/C [28]: 11.5%
- viability, T/C [29]: 15.3%
- viability, T/C [30]: 7.77%
- viability, T/C [31]: 18%
- viability, T/C [32]: 15.3%
- viability, T/C [33]: 16.7%
- viability, T/C [34]: 10.5%
- viability, T/C [35]: 11.3%
- viability, T/C [36]: 11.4%
